Reference: ChEMBL document CHEMBL1125983, “Synthesis and evaluation of new protein-tyrosine kinase inhibitors. Part 2. Phenylhydrazones” (Bioorg Med Chem Lett, 1991)

These compounds were tested against Tyrosine-protein kinase Lck (Homo sapiens, UniProt P06239) (assay: Inhibitory concentration against phosphorylation of angiotensin I catalyzed by protein-tyrosine kinase p56lck).
Sequence of Tyrosine-protein kinase Lck (P06239 whole entry): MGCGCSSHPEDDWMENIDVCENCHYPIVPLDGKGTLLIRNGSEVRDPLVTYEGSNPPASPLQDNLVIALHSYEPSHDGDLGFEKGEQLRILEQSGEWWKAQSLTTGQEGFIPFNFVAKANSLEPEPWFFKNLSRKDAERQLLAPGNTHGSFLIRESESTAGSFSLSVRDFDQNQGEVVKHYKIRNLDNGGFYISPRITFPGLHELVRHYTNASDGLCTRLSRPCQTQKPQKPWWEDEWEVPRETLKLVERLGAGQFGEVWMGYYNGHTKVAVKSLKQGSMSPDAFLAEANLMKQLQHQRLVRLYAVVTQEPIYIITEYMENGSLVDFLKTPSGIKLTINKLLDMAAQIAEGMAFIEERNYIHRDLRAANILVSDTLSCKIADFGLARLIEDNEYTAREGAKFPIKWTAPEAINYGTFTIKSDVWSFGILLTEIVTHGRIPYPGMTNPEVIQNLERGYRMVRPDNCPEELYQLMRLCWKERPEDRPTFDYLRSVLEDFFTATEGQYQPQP

IC50 [µM]	SMILES
> 2490	COc1ccc(/C=N/Nc2ccc(Br)cc2)cc1O
> 2900	Brc1ccc(N/N=C/c2ccccn2)cc1
522	Oc1ccc(/C=N/Nc2ccccn2)c(O)c1O
521	Oc1ccc(/C=N/Nc2ccc(Br)cc2)c(O)c1
> 2160	Oc1ccc(Br)cc1/C=N/Nc1ccc(Br)cc1
2590	COc1cc(/C=N/Nc2ccccc2)ccc1O
310	COc1ccc(N/N=C/c2cc(O)ccc2O)cc1
1260	Oc1cccc(/C=N/Nc2ccccc2)c1O
1010	Oc1ccc(/C=N/Nc2ccccn2)c(O)c1
400	C(=N\Nc1ccccn1)/c1cccnc1
70	Oc1ccc(/C=N/Nc2ccccc2)cc1O
> 2600	Oc1ccc(Br)cc1/C=N/Nc1ccccc1
> 4060	C(=N\Nc1ccccc1)/c1ccncc1
> 3500	Oc1ccc(O)c(/C=N/Nc2ccccc2)c1
350	Oc1ccc(/C=N/Nc2ccccc2)c(O)c1
> 2900	Brc1ccc(N/N=C/c2ccncc2)cc1

IC50 [µM]	SMILES
599	Oc1ccc(/C=N/Nc2ccc(Br)cc2)cc1O
> 2900	Brc1ccc(N/N=C/c2cccnc2)cc1
1040	Oc1ccc(/C=N/Nc2ccc(Br)cc2)c(O)c1O
2110	COc1ccc(/C=N/Nc2ccccc2)cc1O
227	Oc1ccc(/C=N/Nc2ccccn2)cc1O
> 4060	C(=N\Nc1ccccc1)/c1ccccn1
> 2510	O=[N+]([O-])c1ccc(N/N=C/c2cccc(O)c2O)c([N+](=O)[O-])c1
310	COc1ccc(N/N=C/c2cccc(O)c2O)cc1
1320	C(=N\Nc1ccccc1)/c1cccnc1
> 3320	O=[N+]([O-])c1ccc(/C=N/Nc2ccccc2)cc1
1570	Oc1ccc(/C=N/Nc2ccccc2)c(O)c1O
> 3320	O=[N+]([O-])c1cccc(/C=N/Nc2ccccc2)c1
743	COc1ccc(N/N=C/c2ccc(O)c(O)c2)cc1
352	O=[N+]([O-])c1ccc(N/N=C/c2ccc(O)c(O)c2)c([N+](=O)[O-])c1
179	Oc1cc(/C=N/Nc2ccccn2)cc(O)c1O
144	O=[N+]([O-])c1ccc(N/N=C/c2ccc(O)c(O)c2O)c([N+](=O)[O-])c1

SMILES	IC50 [µM]
O=[N+]([O-])c1ccc(N/N=C/c2ccc(O)cc2O)c([N+](=O)[O-])c1	1000
